Values of other authors, collected in US20080241240A1, “COMBINED PHARMACEUTICAL FORMULATION WITH CONTROLLED-RELEASE COMPRISING DIHYDROPYRIDINE CALCIUM CHANNEL BLOCKERS AND HMG-COA REDUCTASE INHIBITORS” (HANALL Pharmaceutical Co., Ltd., priority 2006, published 2008).

Settings: orally administered as single pill

## CCOC(=O)C1=C(COCCN)NC(C)=C(C(=O)OC)C1c1ccccc1Cl (stereo not shown) [Amlodipine, 3-ethyl-5-methyl-2-(2-aminoethoxymethyl)-4-(2-chlorophenyl)-1,4-dihydro-6-methyl-3,5-pyridinedicarboxylate]
  remaining, present in blood: 60%
